In US20230123334A1, “AMINO LIPID COMPOUND, PREPARATION METHOD THEREFOR, AND APPLICATION THEREOF” (SHENZHEN SHENXIN BIOTECHNOLOGY CO., LTD., priority 2020, published 2023):

Test system: HEK293 cells
Test: Preliminary screening as mRNA vectors, EGFP mRNA transfection of HEK293 cells
Assay type: cell-based
Details: EGFP mRNA 50 ng per well, 96-well plates; percentage of GFP fluorescent cells relative to total number of cells (Hoechst)
Procedure, shortened: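 Each well of HEK293 cells received 50 ng of EGFP mRNA. Efficiency was expressed as percent GFP-expressing cells over Hoechst-defined total cell number.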

SMILES | Absolute mRNA transfection efficiency in HEK293 cells [%]
CCCCCCCCCCCCN(CCCCCCCCCCCC)c1nc(NCCN(C)C)nc(SCCCCCC)n1 [D1S6^2N12] | 0.7
CCCCCCCCCCCCN(CCCCCCCCCCCC)c1nc(NCCN(C)C)nc(SCCCCCCC)n1 [D1S7^2N12] | 0.7
CCCCCCCCCCCCN(CCCCCCCCCCCC)c1nc(NCCN(C)C)nc(SCCCCCCCC)n1 [D1S8^2N12] | 0.4
CCCCCCCCCCCCN(CCCCCCCCCCCC)c1nc(NCCN(C)C)nc(SCCCCCCCCC)n1 [D1S9^2N12] | 1.0
CCCCCCCCCCCCN(CCCCCCCCCCCC)c1nc(NCCN(C)C)nc(SCCCCCCCCCC)n1 [D1S10^2N12] | 0.4
CCCCCCCCCCCCN(CCCCCCCCCCCC)c1nc(NCCN(C)C)nc(SCCCCCCCCCCC)n1 [D1S11^2N12] | 0.0
CCCCCCCCCCCCSc1nc(NCCN(C)C)nc(N(CCCCCCCCCCCC)CCCCCCCCCCCC)n1 [D1S12^2N12] | 2.6
CCCCCCCCCCCCCCSc1nc(NCCN(C)C)nc(N(CCCCCCCCCCCC)CCCCCCCCCCCC)n1 [D1S14^2N12] | 0.1
CCCCCCCCCCCCCCCSc1nc(NCCN(C)C)nc(N(CCCCCCCCCCCC)CCCCCCCCCCCC)n1 [D1S15^2N12] | 0.3
CCCCCCCCCCCCCCCCSc1nc(NCCN(C)C)nc(N(CCCCCCCCCCCC)CCCCCCCCCCCC)n1 [D1S16^2N12] | 0.0
CCCCCCCCCCCCCCCCCCSc1nc(NCCN(C)C)nc(N(CCCCCCCCCCCC)CCCCCCCCCCCC)n1 [D1S18^2N12] | 0.0
CCCCCCCCCCCCN(CCCCCCCCCCCC)c1nc(NCCN2CCOCC2)nc(SCCCCCC)n1 [D2S6^2N12] | 0.0
CCCCCCCCCCCCN(CCCCCCCCCCCC)c1nc(NCCN2CCOCC2)nc(SCCCCCCC)n1 [D2S7^2N12] | 0.4
CCCCCCCCCCCCN(CCCCCCCCCCCC)c1nc(NCCN2CCOCC2)nc(SCCCCCCCC)n1 [D2S8^2N12] | 0.1
CCCCCCCCCCCCN(CCCCCCCCCCCC)c1nc(NCCN2CCOCC2)nc(SCCCCCCCCC)n1 [D2S9^2N12] | 0.1
CCCCCCCCCCCCN(CCCCCCCCCCCC)c1nc(NCCN2CCOCC2)nc(SCCCCCCCCCC)n1 [D2S10^2N12] | 0.0
CCCCCCCCCCCCN(CCCCCCCCCCCC)c1nc(NCCN2CCOCC2)nc(SCCCCCCCCCCC)n1 [D2S11^2N12] | 0.3
CCCCCCCCCCCCSc1nc(NCCN2CCOCC2)nc(N(CCCCCCCCCCCC)CCCCCCCCCCCC)n1 [D2S12^2N12] | 0.1
CCCCCCCCCCCCCCSc1nc(NCCN2CCOCC2)nc(N(CCCCCCCCCCCC)CCCCCCCCCCCC)n1 [D2S14^2N12] | 0.0
CCCCCCCCCCCCCCCSc1nc(NCCN2CCOCC2)nc(N(CCCCCCCCCCCC)CCCCCCCCCCCC)n1 [D2S15^2N12] | 0.4
CCCCCCCCCCCCCCCCSc1nc(NCCN2CCOCC2)nc(N(CCCCCCCCCCCC)CCCCCCCCCCCC)n1 [D2S16^2N12] | 0.7
CCCCCCCCCCCCCCCCCCSc1nc(NCCN2CCOCC2)nc(N(CCCCCCCCCCCC)CCCCCCCCCCCC)n1 [D2S18^2N12] | 0.0
CCCCCCCCCCCCN(CCCCCCCCCCCC)c1nc(NCCN2CCCC2)nc(SCCCCCC)n1 [D3S6^2N12] | 0.4
CCCCCCCCCCCCN(CCCCCCCCCCCC)c1nc(NCCN2CCCC2)nc(SCCCCCCC)n1 [D3S7^2N12] | 0.4
